The source of these data is ChEMBL document CHEMBL1123004, “Synthesis and antidepressant profiles of phenyl-substituted 2-amino- and 2-[(alkoxycarbonyl)amino]-1,4,5,6-tetrahydropyrimidines” (J Med Chem, 1985).

The species entered for series [1] is Mus musculus. Put plainly: Antagonism of reserpine-induced hypothermia in mice. It is filed as functional.
Series [2] can be described thus: Lethal dose against mice after peroral administration. As to conditions: mouse, in vivo, po. It is filed as toxicity, organism-based.
For series [3], the species on record is Rattus norvegicus. Put plainly: Inhibition of uptake of Dopamine in rat brain slices. In kind it is functional.
Series [4] is filed under the species Rattus norvegicus. Put plainly: Inhibition of uptake of nor epinephrine in rat brain slices. In kind it is functional.
Series [5] has as its system Mus musculus. Put plainly: In vivo inhibition of uptake of nor epinephrine in mouse heart; value ranges from 0.01-0.15. It is filed as functional.
Series [6] is filed under the species Mus musculus. Put plainly: Antagonism of reserpine-induced hypothermia in mice value given as 0.01-0.15. It is filed as functional.
Series [7] is described as follows: Lethal dose against mice after intraperitoneal administration; range = 31-53. It is filed as toxicity, organism-based. As to conditions: mouse, in vivo, ip.
Series [8] in a line: Lethal dose against mice after peroral administration; RANGE = 50-122. It is filed as toxicity, organism-based. As to conditions: mouse, in vivo, po.
The species named for series [9] is Rattus norvegicus. Put plainly: Inhibition of uptake of 5-HT in rat brain slices. In kind it is functional.
Series [10] is filed under the species Mus musculus. Put plainly: Antagonism of reserpine-induced hypothermia in mice; value given as 0.15-0.6. It is filed as functional.
The species named for series [11] is Mus musculus. Put plainly: Antagonism of reserpine-induced hypothermia in mice; I=inactive at 10 mg/ Kg. It is filed as functional, organism-based.
Series [12] is filed under the species Mus musculus. Put plainly: Antagonism of reserpine-induced hypothermia in mice; Short acting. In kind it is functional.
The subject of series [13] is Mus musculus. Put plainly: In vivo inhibition of uptake of nor epinephrine in mouse heart. It is filed as functional.
The test system of series [14] is Mus musculus. Put plainly: Antagonism of reserpine-induced hypothermia in mice; I=Inactive at 10 mg/kg. Set-up: dose 10 mg/kg. In kind it is functional, organism-based.
The subject of series [15] is Mus musculus. Put plainly: In vivo inhibition of uptake of nor epinephrine in mouse heart; value ranges from 0.01-0.14. It is filed as functional.
Series [16] in a line: Lethal dose against mice after peroral administration; range = 111-182. It is filed as toxicity, organism-based. Particulars: mouse, in vivo, po.
Series [17] can be described thus: Lethal dose against mice after intraperitoneal administration; range = 25-28. It is filed as toxicity, organism-based. Particulars: mouse, in vivo, ip.
The species named for series [18] is Mus musculus. Put plainly: animal or person.
Series [19] has as its system Mus musculus. Put plainly: In vivo inhibition of uptake of nor epinephrine in mouse heart; value ranges from 3.1-14.6. It is filed as functional.

Activity calls are given as the source filed them. No cut-off for these calls is given here. Where only a bound is given, the exact number is not on record here.

For `COC(=O)N=C1N(C)CC(c2ccccc2)CN1C` (stereo unspecified), in the series filed under Mus musculus [1], the Min oral dose came to 10 mg/kg.

Broadly, the LD50 is the dose at which mortality reaches 50%. Higher therefore signals lower toxicity. The compound `CC(C)OC(=O)NC1=NCC(c2ccccc2)CN1` (stereo unspecified) yielded a median lethal dose (LD50) in [2] of more than 1000 mg/kg. In the series filed under Mus musculus [1], this compound yielded a Min oral dose of 0.04 mg/kg. In turn, `CCOC(=O)NC1=NCC(c2ccccc2)CN1` (stereo unspecified) had a median lethal dose (LD50) in series [2] of more than 1000 mg/kg. In addition, in the series filed under Mus musculus [1], the Min oral dose came out at 0.04 mg/kg. In turn, `CNC1=NCC(c2ccccc2)CN1C` (stereo unspecified) yielded a Min oral dose in the series listed under Mus musculus [1] of 10 mg/kg. The compound `COC(=O)NC1=NC(c2ccccc2)CCN1C` (stereo unspecified) returned a Min oral dose in the series listed under Mus musculus [1] of 10 mg/kg. As usually defined, the IC50 is the point on the concentration scale where inhibition reaches its midpoint. A high value points to lower potency. The term ED50 denotes the midpoint of the dose-response relation. Low readings indicate greater potency, high ones weaker potency. Consider `NC1=NCC(c2ccccc2)CN1` (stereo unspecified), for which the results for the half-maximal inhibitory concentration (IC50) in the series filed under Rattus norvegicus [3], in the series filed under Rattus norvegicus [4] and in the series listed under Rattus norvegicus [9] were 0.03 µM, 0.01 µM and 1.6 µM, respectively. The same compound had a 50% effective dose (ED50) in the series with Mus musculus [5] of 0.038 mg/kg. The same compound showed a Min oral dose in the series filed under Mus musculus [6] of 0.15 mg/kg. Besides, the LD50 in [7] turned out to be 42 mg/kg; in [8], 78 mg/kg. Consider `CNC1=NCC(c2ccccc2)CN1` (stereo unspecified), for which the Min oral dose in the series filed under Mus musculus [1] amounted to 1 mg/kg. Turning to `COC(=O)NC1=NCC(c2c(Cl)cccc2Cl)CN1` (stereo unspecified), the Min oral dose in the series listed under Mus musculus [10] was found to be 0.6 mg/kg. Take `CCCOC(=O)NC1=NC(c2ccccc2)CCN1` (stereo unspecified): in the series filed under Mus musculus [11], the Min oral dose result is “inactive”.

Take `COC(=O)NC1=NC(c2ccccc2)CCN1` (stereo unspecified): the Min oral dose in the series filed under Mus musculus [12] amounted to 2.5 mg/kg. Compound `CN1CC(c2ccccc2)CN(C)C1=N` (stereo unspecified) had a Min oral dose in the series listed under Mus musculus [1] of 10 mg/kg. `CN(C)CCC=C1c2ccccc2CCc2ccccc21` [AMITRIPTYLINE]: the IC50 in the series listed under Rattus norvegicus [3] is 12 µM; in the series filed under Rattus norvegicus [4], 2.5 µM; in the series filed under Rattus norvegicus [9], 12 µM. This compound also registered a Min oral dose in the series listed under Mus musculus [1] of 0.15 mg/kg. This compound came in with an ED50 with Mus musculus [13] of 4.4 mg/kg.

In the case of `COC(=O)NC1=NCC(c2cccc(Br)c2)CN1` (stereo unspecified), in the series filed under Mus musculus [1], the Min oral dose came to 1 mg/kg. For `NC1=NCC(c2cccc(Br)c2)CN1` (stereo unspecified), in the series filed under Mus musculus [1], the Min oral dose was 10 mg/kg.

In the case of `COC(=O)NC1=NC(c2ccc(C)cc2)CCN1` (stereo unspecified), in the series on Mus musculus [14], the Min oral dose entry was “inactive”.

`COC(=O)NC1=NCC(c2ccc(C(C)C)cc2)CN1` (stereo unspecified) returned a Min oral dose in the series filed under Mus musculus [1] of 1 mg/kg. `COC(=O)NC1=NC(c2ccccc2C(F)(F)F)CCN1` (stereo unspecified) showed a Min oral dose in the series listed under Mus musculus [1] of 10 mg/kg. Regarding `NC1=NC(c2ccccc2)CCN1` (stereo unspecified), the Min oral dose in the series listed under Mus musculus [1] was 10 mg/kg. For the compound `COC(=O)NC1=NCC(c2ccc(Cl)cc2Cl)CN1` (stereo unspecified), the Min oral dose in the series filed under Mus musculus [1] was 10 mg/kg. Take `COC(=O)NC1=NCC(c2ccccc2)CN1` (stereo unspecified): the figures for the IC50 in the series filed under Rattus norvegicus [3], in the series listed under Rattus norvegicus [4] and in the series filed under Rattus norvegicus [9] were 24 µM, 4.9 µM and 160 µM, respectively. The same compound had a Min oral dose in the series filed under Mus musculus [1] of 0.0006 mg/kg. This compound yielded an ED50 in the series on Mus musculus [15] of 0.038 mg/kg. The median lethal dose (LD50) in series [16] is 142 mg/kg; in series [17], 27 mg/kg. Regarding `CNCCCN1c2ccccc2CCc2ccccc21` [DESIPRAMINE], the half-maximal inhibitory concentration (IC50) in the series filed under Rattus norvegicus [3] and in the series filed under Rattus norvegicus [9] was 12 µM each time. The same compound gave an ED50 in the series filed under Mus musculus [18] of 1.4 mg/kg. On to `CN(C)CCCN1c2ccccc2CCc2ccccc21` [IMIPRAMINE], for which the IC50 in the series filed under Rattus norvegicus [3] turned out to be 12 µM; in the series listed under Rattus norvegicus [4], 4.6 µM; in the series filed under Rattus norvegicus [9], 16 µM. Besides, in the series with Mus musculus [19], the 50% effect level (ED50) was put at a dose of 6.7 mg/kg. The Min oral dose in the series listed under Mus musculus [1] worked out at 0.15 mg/kg. The compound `COC(=O)NC1=NCC(c2ccccc2Cl)CN1` (stereo unspecified) returned a Min oral dose in the series filed under Mus musculus [1] of 10 mg/kg. For the compound `COC(=O)NC1=NCC(c2ccccc2)CN1C` (stereo unspecified), the Min oral dose in the series listed under Mus musculus [10] is 0.15 mg/kg. In the series filed under Mus musculus [1], `COC(=O)NC1=NCC(c2ccc(F)cc2)CN1` (stereo unspecified) yielded a Min oral dose of 0.04 mg/kg. In the series filed under Mus musculus [1], `COC(=O)NC1=NC(c2ccc(F)cc2)CCN1` (stereo unspecified) came in with a Min oral dose of 1 mg/kg. `COC(=O)NC1=NC(c2ccc(OC)cc2)CCN1` (stereo unspecified) gave a Min oral dose in the series listed under Mus musculus [1] of 10 mg/kg.
